We go through eight compounds from US20170150719A1, “FUNGICIDAL PYRAZOLES AND THEIR MIXTURES” (E I DU PONT DE NEMOURS AND COMPANY, priority 2010, published 2017).

Each structure is given as a SMILES string. Marks after values point to notes of the source that are not given here.

In one experiment the test system is Septoria tritici. The experiment is described as follows: Test F: wheat leaf blotch, preventive spray on wheat seedlings, visual disease rating. In kind it is in vivo. Conditions: 100 = 100% disease control; for Test F rating (disease control) / pest or weed control at 200 µg/mL: 0 = no disease control relative to the controls; for pest or weed control at 200 µg/mL: Zymoseptoria tritici. An excerpt:
(§1) A hyphen (-) indicates no test results.

In experiment [1] the test system is Puccinia recondita f. sp. tritici. The experiment is described as follows: Test G: wheat leaf rust, spray after inoculation (curative) on wheat seedlings, visual disease rating. Conditions: 100 = 100% disease control; for Test G rating (disease control) / pest or weed control at 200 µg/mL: sprayed after inoculation, 0 = no disease control. It is filed as in vivo.
Description: as §1

For experiment [2] the test system is unchanged. The experiment is described as follows: Test H: wheat leaf rust, preventive spray on wheat seedlings, visual disease rating. Conditions: 100 = 100% disease control; for Test H rating (disease control): sprayed the day before inoculation; for Test H rating (disease control) / pest or weed control at 200 µg/mL: 0 = no disease control; for pest or weed control at 200 µg/mL: read-out: Test H rating (disease control), wheat leaf rust, sprayed the day before inoculation.

The subject of a further experiment is Botrytis cinerea. In words: Test A: tomato Botrytis, preventive spray on tomato seedlings, visual disease rating. Conditions: 100 = 100% disease control; for Test A rating (disease control) / pest or weed control at 200 µg/mL: 0 = no disease control relative to the controls; for pest or weed control at 200 µg/mL: Botrytis cinerea, in Solanum lycopersicum, read-out: Test A rating (disease control), tomato Botrytis.

Another experiment has as its system Alternaria solani. In words: Test B: tomato early blight, preventive spray on tomato seedlings, visual disease rating. The note with it: for Test B rating (disease control): 0 = no disease control relative to the controls; for pest or weed control at 200 µg/mL: Alternaria solani, in Solanum lycopersicum, read-out: Test B rating (disease control).
In experiment [3] the test system is Blumeria graminis f. sp. tritici. The experiment is described as follows: Test I: wheat powdery mildew, preventive spray on wheat seedlings, visual disease rating. The note with it: for Test I rating (disease control) / pest or weed control at 200 µg/mL: 0 = no disease control relative to the controls; for pest or weed control at 200 µg/mL: Blumeria graminis, in Triticum aestivum, read-out: Test I rating (disease control), wheat powdery mildew.

The test system of a further experiment is Septoria nodorum. The experiment is described as follows: Test E: Septoria glume blotch, preventive spray on wheat seedlings, visual disease rating. The note with it: 100 = 100% disease control; for Test E rating (disease control): Septoria glume blotch; for Test E rating (disease control) / pest or weed control at 200 µg/mL: 0 = no disease control relative to the controls; for pest or weed control at 200 µg/mL: Parastagonospora nodorum, in Triticum aestivum, read-out: Test E rating (disease control), Septoria glume blotch.

The mark [4] stands for this setting: tomato early blight, 100 = 100% disease control.
Where [5] appears, read: wheat powdery mildew, 100 = 100% disease control.

Description for Septoria nodorum: General protocol for preparing test suspensions for Tests A-I: the test compounds were first dissolved in acetone in an amount equal to 3% of the final volume and then suspended at the desired concentration (in ppm) in acetone and purified water (50/50 mix by volume) containing 250 ppm of the surfactant Trem® 014 (polyhydric alcohol esters). The resulting test suspensions were then used in Tests A-I. Each test was conducted in triplicate, and the results were averaged. Spraying a 200 ppm test suspension to the point of run-off on the test plants was the equivalent of a rate of about 800 g/ha. Unless otherwise indicated, the rating values indicate a 200 ppm test suspension was used. (An asterisk “*” next to the rating value indicates a 40 ppm test suspension was used.)
The test suspension was sprayed to the point of run-off on wheat seedlings. The following day the seedlings were inoculated with a spore suspension of Septoria nodorum (the causal agent of Septoria glume blotch) and incubated in a saturated atmosphere at 24° C. for 48 h, and then moved to a growth chamber at 20° C. for 9 days, after which time visual disease ratings were made.

As for `CCOc1ccc(Nc2c(-c3ccc(F)cc3Cl)c(C)nn2C)c(Cl)c1` [compound 104], the “Test F rating (disease control)” value with Septoria tritici came out at 100%. Further, the “Test G rating (disease control)” value in experiment [1] was 0%. In addition, in experiment [2] (wheat leaf rust), the “Test H rating (disease control)” value turned out to be 97%. Further, the “Test A rating (disease control)” value in the experiment with Botrytis cinerea (tomato Botrytis) stood at 100%. The “Test B rating (disease control)” value in the experiment with Alternaria solani (setting [4]) is on record as 0%. Further, the “Test I rating (disease control)” value in experiment [3] (setting [5]) is reported as 99%. Further, the “Test E rating (disease control)” value with Septoria nodorum was found to be 0%.
Turning to `Cc1nn(C)c(Nc2c(F)cc(Cl)cc2F)c1-c1ccc(C#N)cc1Cl` [Compound 111, 3-chloro-4-[5-[(4-chloro-2,6-difluorophenyl)amino]-1,3-dimethyl-1H-pyrazol-4-yl]benzonitrile], the pest or weed control at 200 µg/mL in the experiment on Septoria tritici was 100%; in experiment [1] it was 94%; in experiment [2], 100%; with Botrytis cinerea, 100%; in the experiment with Alternaria solani, 97%; in experiment [3] (100 = 100% disease control) it was 99%. For the same compound, the pest or weed control at 200 µg/mL with Septoria nodorum was found to be 95%.
Consider `COc1ccc(-c2c(C)nn(C)c2Oc2ccc(C#N)cc2Cl)c(Br)c1` [compound 99], for which, in the experiment with Septoria tritici, the “Test F rating (disease control)” value was 100%. For the same compound, the “Test G rating (disease control)” value in experiment [1] came out at 0%. In experiment [2] (wheat leaf rust), the “Test H rating (disease control)” value amounted to 97%. Further, in the experiment on Botrytis cinerea (tomato Botrytis), the “Test A rating (disease control)” value is reported as 99%. In addition, the “Test B rating (disease control)” value in the experiment on Alternaria solani (setting [4]) came out at 0%. In experiment [3] (setting [5]), the “Test I rating (disease control)” value was determined as 89%. The “Test E rating (disease control)” value with Septoria nodorum was determined as 0%.
In the case of `COc1ccc(-c2c(C)nn(C)c2Nc2c(Cl)cc(F)cc2Cl)c(Cl)c1` [compound 205], the “Test F rating (% disease control)” value in the experiment on Septoria tritici (preventive spray, rating without asterisk) came out at 100%. In experiment [1] (spray after inoculation, rating without asterisk), the “Test G rating (% disease control)” value was determined as 0%. The “Test H rating (% disease control)” value in experiment [2] (wheat leaf rust, preventive spray, rating without asterisk) is 99%. Moreover, in the experiment on Botrytis cinerea (tomato Botrytis, preventive spray, 0 = no control relative to controls, rating without asterisk), the “Test A rating (% disease control)” value stood at 59%. Besides, the “Test B rating (% disease control)” value with Alternaria solani (tomato early blight, preventive spray, 100 = 100% disease control, rating without asterisk) came out at 31%. Further, the “Test I rating (% disease control)” value in experiment [3] (wheat powdery mildew, preventive spray, 100 = 100% disease control, rating without asterisk) was found to be 21%. Further, the “Test E rating (% disease control)” value in the experiment with Septoria nodorum (Septoria glume blotch on wheat, preventive spray, rating without asterisk) turned out to be 0%.
Turning to `COc1cc(F)c(Nc2c(-c3c(F)cc(F)cc3F)c(C)nn2C)c(F)c1` [compound 19], the “Test F rating (disease control)” value in the experiment on Septoria tritici was determined as 98%. Also, in experiment [1], the “Test G rating (disease control)” value is 0%. Also, the “Test H rating (disease control)” value in experiment [2] (wheat leaf rust) worked out at 89%. Moreover, the “Test A rating (disease control)” value with Botrytis cinerea (tomato Botrytis) is given as 99%. Also, the “Test B rating (disease control)” value in the experiment on Alternaria solani (setting [4]) is reported as 82%. Moreover, the “Test I rating (disease control)” value in experiment [3] (setting [5]) is on record as 91%. For the same compound, in the experiment with Septoria nodorum, the “Test E rating (disease control)” value is reported as 0%.
Consider `Cc1nn(C)c(Nc2c(F)cc(F)cc2F)c1-c1ccc(F)cc1Cl` [Compound 4, 4-(2-chloro-4-fluorophenyl)-1,3-dimethyl-N-(2,4,6-trifluorophenyl)-1H-pyrazol-5-amine], for which the pest or weed control at 200 µg/mL in the experiment with Septoria tritici was determined as 95%; in experiment [1] it was 99%; in experiment [2], 100%; in the experiment on Botrytis cinerea it was 99%; with Alternaria solani, 100%; in experiment [3] (100 = 100% disease control), 100%. For the same compound, the pest or weed control at 200 µg/mL in the experiment with Septoria nodorum turned out to be 99%.
With `COc1ccc(-c2c(C)nn(C)c2Oc2c(F)cc(C#N)cc2F)c(Cl)c1` [compound 41], in the experiment with Septoria tritici, the “Test F rating (disease control)” value came out at 100%. In addition, the “Test G rating (disease control)” value in experiment [1] is 92%. Besides, the “Test H rating (disease control)” value in experiment [2] (wheat leaf rust) came to 100%. Further, the “Test A rating (disease control)” value in the experiment on Botrytis cinerea (tomato Botrytis) is reported as 100%. Besides, in the experiment on Alternaria solani (setting [4]), the “Test B rating (disease control)” value was 99%. In addition, the “Test I rating (disease control)” value in experiment [3] (setting [5]) is given as 99%. Also, the “Test E rating (disease control)” value in the experiment on Septoria nodorum came out at 100%.
As to `COc1cc(Cl)c(Nc2c(-c3ccc(F)cc3Cl)c(C)nn2C)c(Cl)c1` [compound 85], the “Test F rating (disease control)” value in the experiment with Septoria tritici turned out to be 100%. Moreover, the “Test G rating (disease control)” value in experiment [1] amounted to 0%. In addition, in experiment [2] (wheat leaf rust), the “Test H rating (disease control)” value was 99%. In the experiment on Botrytis cinerea (tomato Botrytis), the “Test A rating (disease control)” value is recorded as 99%. Moreover, the “Test B rating (disease control)” value in the experiment on Alternaria solani (setting [4]) is listed as 0%. Besides, the “Test I rating (disease control), value marked *” value in experiment [3] (wheat powdery mildew, rating marked with asterisk (*), not explained in the text shown) is reported as 99* %. Moreover, in the experiment on Septoria nodorum, the “Test E rating (disease control)” value came to 0%.
